In patent US6399629B1, “Efflux pump inhibitors” (priority 1998, dated 2002):

System: Pseudomonas aeruginosa PAM1001
Assay: checkerboard assay (broth microdilution): levofloxacin MIC in presence of efflux pump inhibitor
Format: cell-based
In short: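 Reduction of levofloxacin MIC by an efflux pump inhibitor measured against Pseudomonas aeruginosa PAM1001. Each microdilution well held a unique combination of levofloxacin and inhibitor (max 40 μg/mL) in MHB, inoculum 5×10^5 CFU/mL. Readout after 20 h, 35° C: OD650 plus visual inspection.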

Row | Compound | Levofloxacin MIC Against P. aerugiuosa PAM1001 in Presence of Efflux Pump Inhibitor (EPI), Minimum Inhibitory Concentration (EPI Conc. 0 μg/mL) [µg/mL] | Levofloxacin MIC Against P. aerugiuosa PAM1001 in Presence of Efflux Pump Inhibitor (EPI), Minimum Inhibitory Concentration (EPI Conc. 0.625 μg/mL) [µg/mL] | Levofloxacin MIC Against P. aerugiuosa PAM1001 in Presence of Efflux Pump Inhibitor (EPI), Minimum Inhibitory Concentration (EPI Conc. 1.25 μg/mL) [µg/mL] | Levofloxacin MIC Against P. aerugiuosa PAM1001 in Presence of Efflux Pump Inhibitor (EPI), Minimum Inhibitory Concentration (EPI Conc. 2.5 μg/mL) [µg/mL] | Levofloxacin MIC Against P. aerugiuosa PAM1001 in Presence of Efflux Pump Inhibitor (EPI), Minimum Inhibitory Concentration (EPI Conc. 5 μg/ mL) [µg/mL] | Levofloxacin MIC Against P. aerugiuosa PAM1001 in Presence of Efflux Pump Inhibitor (EPI), Minimum Inhibitory Concentration (EPI Conc. 10 μg/mL) [µg/mL] | Levofloxacin MIC Against P. aerugiuosa PAM1001 in Presence of Efflux Pump Inhibitor (EPI), Minimum Inhibitory Concentration (EPI Conc. 20 μg/mL) [µg/mL] | Levofloxacin MIC Against P. aerugiuosa PAM1001 in Presence of Efflux Pump Inhibitor (EPI), Minimum Inhibitory Concentration (EPI Conc. 40 μg/mL) [µg/mL]
1 | NC[C@@H]1CN[C@@H](C(=O)N[C@H](CCc2ccccc2)C(=O)Nc2cc(Cl)ccc2O)C1 [Compound M39, (2R,4R)-4-(Aminomethyl)-N-[(1R)-3-pheyl-1-(5-chloro-2-hydroxyphenylcarbamoyl)propyl]-2-pyrrolidinecarboxamide] | 4 | 4 | 2 | 0.5 | 0.25 | 0.015 | 0.015 | 0.015
2 | NCC(=O)N[C@H]1CN[C@H](C(=O)N[C@@H](CCc2ccccc2)c2nc3ccccc3o2)C1 [Compound M85, (2S,4R)-4-(2-Aminoacetamido)-N-[(1S)-1-(2-benzoxazoiyl)-3-phenylpropyl]-2-pyrrolidinecarboxamide] | 4 | 4 | 4 | 4 | 4 | 2 | 0.50 | 0.03
3 | (2S,4R)-4-(2-Aminoacetamido)-N-[4-benzyl-2-benzimidazolyl)ethyl]-2-pyrrolidinecarboxamide [Compound M99] | 4 | 4 | 4 | 4 | 4 | 4 | 0.06 | 0.03
4 | NC[C@@H]1CN[C@@H](CO[C@@H](CCc2ccccc2)C(=O)Nc2cnc3ccccc3c2)C1 [Compound M69, (2R,4R)-4-(Aminomethyl)-2-[((1S)-3-phenyl-1-(3-quiolylcarbamoyl)propyl)oxymethyl]pyrrolidine] | 4 | 4 | 2 | 2 | 0.125 | 0.125 | 0.125 | 0.06
5 | CC(N)C(=O)N[C@H]1CN[C@H](C(=O)N[C@H](CCc2ccccc2)C(=O)Nc2cnc3ccccc3c2)C1 (stereo partly drawn) [Compound M4, (2S,4R)-4-(2-Aminopropionamido]-N-[(1R)-3-pheyl-1-(3-quinolylcarbamoyl)propyl]-2-pyrrolidinecarboxamide] | 4 | 4 | 4 | 4 | 2 | 2 | 1 | 0.015
6 | (2R,4S)-4-(2-Aminoacetamideo)-N-(2-methylpropyl)-N-(7-ethyl-3-quinolylcarbamoyl)ethyl]-2-pyrrolidinecarboxamide [Compound M44] | 4 | 4 | 4 | 4 | 1 | 0.06 | 0.015 | 0.03
7 | NCC(=O)N[C@H]1CN[C@H](C(=O)NCc2nc3cc(Cc4ccccc4)ccc3[nH]2)C1 [Compound M79, (2S,4R)-4-(2-Aminoacetamido)-N-[(5-benzyl-2-benzimidazolyl)methyl]-2-pyrrolidinexarboxamide] | 4 | 4 | 4 | 4 | 4 | 2 | 1 | 0.125
8 | CC(C)(C)c1ccc2oc(C(O)[C@@H](CCc3ccccc3)NC(=O)[C@H]3C[C@H](CN)CN3)nc2c1 (mixture of isomers) [Compound M68] | 4 | 4 | 4 | 4 | 4 | 4 | 0.5 | 0.015
9 | CN(C(=O)CN)[C@@H]1CN[C@H](C(=O)N[C@H](CCc2ccccc2)C(=O)Nc2cnc3ccccc3c2)C1 [Compound M9] | 4 | 4 | 4 | 4 | 4 | 4 | 2 | 0.06
10 | NC[C@@H]1CN[C@@H](C(=O)N[C@H](CCc2ccccc2)C(=O)Nc2cccc3cccnc23)C1 [Compound M30, (2R,4R)-4-(Aminomethyl)-N-[(1R)-3-pheyl-1-(8-quinolylcarbamoyl)propyl]-2-pyrrolidinecarboxamide] | 4 | 4 | 4 | 4 | 4 | 2 | 0.03 | 0.015
11 | (2S,4R)-4-(2-Aminoacetamideo)-N-(2-phenylethyl)-N-(3-quinolylcarbamoyl)ethyl]-2-pyrrolidinecarboxamide [Compound M43] | 4 | 4 | 4 | 2 | 0.25 | 0.125 | 0.125 | 0.06
